# Values of other authors as cited in patent US10327463B2 (priority 2015, dated 2019).
# Where a name gives a salt, the structure may show the parent alone.
# Assays:
# [1] = tested on: C. perfringens
# [2] = tested on: Listeria monocytogenes; conditions: alone or with additional antimicrobials; turkey slurries with and without sodium nitrite
# [3] = tested on: Listeria monocytogenes; conditions: maximum allowed level of 156 ppm, without adjunct antimicrobials
# [4] = tested on: Clostridium species; conditions: cured products, processed meat formulations
structure (smiles),measurement,setting,value
"CC(=O)O [acetic acid or its salt, acetic acid]",inhibition of C. perfringens,[1],failed to inhibit C. perfringens
CC(=O)O.CC(=O)[O-].[Na+] [sodium diacetate],level effective in controlling Listeria monocytogenes,[2],0.3-0.5%
O=NO [sodium nitrite],inhibition of Listeria monocytogenes,[3],insufficient for the inhibition of Listeria monocytogenes
same,level sufficient for the inhibition of Clostridium species,[4],approx. 50 ppm
